Laboratory results published in patent publication US20240083857A1, “2-Methyl-Quinazolines” (Bayer Pharma Aktiengesellschaft, priority 2017, published 2024).

Experiments:
[1] = molecular target: K-Ras^G12C : hSOS1 interaction (Homo sapiens, UniProt Q07889); experiment: Biochemical assay 1: K-Ras^G12C interaction assay with hSOS1 (HTRF); format: binding; conditions: E-notation values; unit inferred; read-out: Assay 1 (KRAS-SOS interaction) IC50
[2] = molecular target: human SOS1 (loading of human K-Ras^G12C-GDP with fluorescent GTP-analog) (Homo sapiens, UniProt Q07889); experiment: Biochemical assay 3: K-Ras^G12C activation assay by hSOS1 (HTRF); conditions: E-notation values; unit inferred; read-out: Assay 3 (KRAS-Activation) IC50

With COc1cc2nc(C)nc(NC(C)c3cc(Cl)c(Br)s3)c2cc1OC (centres unmarked) [Example 432, N-[1-(5-bromo-4-chlorothiophen-2-yl)ethyl]-6,7-dimethoxy-2-methylquinazolin-4-amine] the IC50 [1] was 16700 nM and the IC50 [2] was > 20000 nM.

Work on Cc1nc(NC(C)c2ccc(-c3ccccc3CN(C)C)s2)c2cc(NCCN3CCOCC3)ccc2n1 (centres unmarked) [Example 433, N4-[1-(5-{2-[(dimethylamino)methyl]phenyl}-2-thienyl)ethyl]-2-methyl-N6-[2-(morpholin-4-yl)ethyl]quinazoline-4,6-diamine] yielded an IC50 [1] of 77.1 nM and an IC50 [2] of 76.9 nM.

Cc1nc(NC(C)c2ccc(Br)s2)c2cc(N3CCN(C)C(=O)C3)ccc2n1 (centres unmarked) [Example 434, 4-(4-{[1-(5-bromothiophen-2-yl)ethyl]amino}-2-methylquinazolin-6-yl)-1-methylpiperazin-2-one] was tested, and the IC50 [1] was 2840 nM and the IC50 [2] was 2810 nM.

In the case of Cc1nc(NC(C)c2ccc(-c3ccccc3CN(C)C)s2)c2cc(N3CCN(C)C(=O)C3)ccc2n1 (centres unmarked) [Example 435, 4-(4-{[1-(5-{2-[(dimethylamino)methyl]phenyl}thiophen-2-yl)ethyl]amino}-2-methylquinazolin-6-yl)-1-methylpiperazin-2-one], the IC50 [1] is reported as 84.4 nM and the IC50 [2] is reported as 68.6 nM.

COC(=O)C(C)(C)c1ccccc1-c1ccc(C(C)Nc2nc(C)nc3cc(OC)c(OC)cc23)s1 (centres unmarked) [Example 436, methyl 2-[2-(5-{1-[(6,7-dimethoxy-2-methylquinazolin-4-yl)amino]ethyl}thiophen-2-yl)phenyl]-2-methylpropanoate] gave an IC50 [1] of 2390 nM and an IC50 [2] of 1770 nM.

In the case of COc1cc2nc(C)nc(NC(C)c3sc(-c4ccccc4CN)cc3Cl)c2cc1OC (centres unmarked) [Example 437, N-[1-{5-[2-(aminomethyl)phenyl]-3-chlorothiophen-2-yl}ethyl]-6,7-dimethoxy-2-methylquinazolin-4-amine], the IC50 [1] is reported as 145 nM and the IC50 [2] is reported as 160 nM.

Cc1nc(NC(C)c2ccc(-c3ccccc3CN(C)C)s2)c2cc(NS(C)(=O)=O)ccc2n1 (centres unmarked) [Example 438, N-(4-{[1-(5-{2-[(dimethylamino)methyl]phenyl}thiophen-2-yl)ethyl]amino}-2-methylquinazolin-6-yl)methanesulfonamide] was tested, and the IC50 [1] was 90.2 nM and the IC50 [2] was 116 nM.

Compound COc1ccc(-c2ccc(C(C)Nc3nc(C)nc4cc(OC)c(OC)cc34)s2)c(CN(C)C)c1 (centres unmarked) [Example 439, N-[1-(5-{2-[(dimethylamino)methyl]-4-methoxyphenyl}thiophen-2-yl)ethyl]-6,7-dimethoxy-2-methylquinazolin-4-amine] has an IC50 [1] of 277 nM and an IC50 [2] of 229 nM.

Cc1nc(NC(C)c2ccc(-c3ccccc3CN(C)C)s2)c2cc(NC(=O)N(C)C)ccc2n1 (centres unmarked) [Example 440, 3-(4-{[1-(5-{2-[(dimethylamino)methyl]phenyl}thiophen-2-yl)ethyl]amino}-2-methylquinazolin-6-yl)-1,1-dimethylurea] showed an IC50 [1] of 706 nM and an IC50 [2] of 921 nM.

In the case of Cc1nc(NC(C)c2ccc(Br)s2)c2cc(N3CCN(Cc4ccccc4)C(=O)C3)ccc2n1 (centres unmarked) [Example 441, 1-benzyl-4-(4-{[1-(5-bromothiophen-2-yl)ethyl]amino}-2-methylquinazolin-6-yl)piperazin-2-one], the IC50 [1] is reported as 16100 nM and the IC50 [2] is reported as 15100 nM.

Work on COc1cc2nc(C)nc(NC(C)c3ccc(-c4ccc(C)cc4CN(C)C)s3)c2cc1OC (centres unmarked) [Example 442, N-[1-(5-{2-[(dimethylamino)methyl]-4-methylphenyl}thiophen-2-yl)ethyl]-6,7-dimethoxy-2-methylquinazolin-4-amine] yielded an IC50 [1] of 45.3 nM and an IC50 [2] of 45.1 nM.

For COc1cc2nc(C)nc(NC(C)c3ccc(-c4ccc(C5CC5)cc4CN(C)C)s3)c2cc1OC (centres unmarked) [Example 443, N-[1-(5-{4-cyclopropyl-2-[(dimethylamino)methyl]phenyl}thiophen-2-yl)ethyl]-6,7-dimethoxy-2-methylquinazolin-4-amine], the IC50 [1] was 112 nM and the IC50 [2] was 69 nM.

For COc1cc2nc(C)nc(NC(C)c3ccc(-c4ccccc4C(C)(C)N)s3)c2cc1OC (centres unmarked) [Example 455, N-[1-{5-[2-(2-aminopropan-2-yl)phenyl]thiophen-2-yl}ethyl]-6,7-dimethoxy-2-methylquinazolin-4-amine], the IC50 [1] was 397 nM and the IC50 [2] was 769 nM.

Compound COc1cc2nc(C)nc(NC(C)c3ccc(-c4ccccc4CN(C)CC#N)s3)c2cc1OC (centres unmarked) [Example 456, {[2-(5-{1-[(6,7-dimethoxy-2-methylquinazolin-4-yl)amino]ethyl}thiophen-2-yl)benzyl](methyl)amino}acetonitrile] has an IC50 [1] of 162 nM and an IC50 [2] of 287 nM.

CNC(=O)Nc1ccc2nc(C)nc(NC(C)c3ccc(-c4ccccc4CN(C)C)s3)c2c1 (centres unmarked) [Example 457, 1-(4-{[1-(5-{2-[(dimethylamino)methyl]phenyl}thiophen-2-yl)ethyl]amino}-2-methylquinazolin-6-yl)-3-methylurea] gave an IC50 [1] of 295 nM and an IC50 [2] of 638 nM.

For Cc1nc(NC(C)c2ccc(-c3ccccc3CN(C)C)s2)c2cc(N3CCN(Cc4ccccc4)C(=O)C3)ccc2n1 (centres unmarked) [Example 458, 1-benzyl-4-(4-{[1-(5-{2-[(dimethylamino)methyl]phenyl}thiophen-2-yl)ethyl]amino}-2-methylquinazolin-6-yl)piperazin-2-one], the IC50 [1] was 48 nM and the IC50 [2] was 45.5 nM.
